# Values joined by “and” are separate entries in the source; they are usually repeats but may differ in a detail not shown here. Equal values may be shown once.
# Columns and labels:
# CD1 mice = test: Hargreaves test under CFA-induced hyperalgesic conditions in CD1 mice; type: in vivo
# Experimental: Under CFA-induced hyperalgesic conditions, the maximum possible effect, % MPE=(response−baseline)/(cut-off time−baseline), was measured for the application of compound 1 alone (0.05 mg/kg, blue, n=12; 0.01 mg/kg, orange, n=4), morphine alone (0.1 mg/kg, green, n=8), and compound 1 with morphine at three different dosage combinations: 0.05 mg/kg compound 1 with 0.1 mg/kg morphine (light blue, n=6), 0.01 mg/kg compound 1 with 0.1 mg/kg morphine (pink, n=10), and 0.01 mg/kg compound 1 with 0.01 mg/kg morphine (red, n=4). […] Error bars designate the standard error of the mean.
# 0.05 mg/kg compound 1 was tested for tolerance in CFA-treated mice (red). Under CFA-induced hyperalgesic conditions (24 hours post-application of CFA), 0.05 mg/kg compound 1 was administered to CD1 mice and responses to the Hargreaves test were measured immediately after the initial injection (application time=0) and again after a repeated dose given 1.5 hours (FIG. 7A) or 24 hours (FIG. 7B) after the effects of the first dose wore off. The black circles represent the responses of naïve mice (i.e., no administration of compound 1 or CFA), and the red circles represent the responses of mice receiving compound 1 under CFA-induced hyperalgesic conditions. […] Error bars designate the standard error of the mean (n=4).
# Responses of CD1 mice to the Hargreaves test were assessed after application of 0.1 mg/kg of the indicated compounds (black) or vehicle (white) under CFA-induced hyperalgesic conditions as shown in FIGS. 8A-8H. The assessed compounds were compounds 1 (8A), 2 (8B), 3 (8C), 4 (8D), 5 (8E), 6 (8F), 7 (8G), and 8 (8H). […] Error bars designate the standard error of the mean (n≥4).
# Dose response curves from the Hargreaves test in mice with a CFA-inflamed left hind paw at 1.5 and 2 hr after intraperitoneal injection of compound 1. Percent Maximum Possible Effect (% MPE) was calculated from paw withdrawal latencies.
# Tolerance to compound 1 (MJPY1) and compound 3 (MJPY2) was measured by repeated dosing in the Hargreaves Test. […] Mice (n=6/group) received repeated i.p. injections of vehicle or 0.1 mg/kg compound 1 (MJPY1) or compound 3 (MJPY2) once a day for 5 days. CFA inflammation was induced on day 4, and PWL was measured 0.5 hr before and every 10 min after treatment on day 5. Data were binned to 30-min blocks (mean±SEM).
# human α3GlyR = biological target: T1, human α3GlyR (Homo sapiens, UniProt O75311); test: In vitro functional electrophysiology in Xenopus laevis oocytes; type: cell-based
# T1 construct: expressed in transfected cells; host or cells: Xenopus laevis oocytes
# T1 sequence (O75311 34-464): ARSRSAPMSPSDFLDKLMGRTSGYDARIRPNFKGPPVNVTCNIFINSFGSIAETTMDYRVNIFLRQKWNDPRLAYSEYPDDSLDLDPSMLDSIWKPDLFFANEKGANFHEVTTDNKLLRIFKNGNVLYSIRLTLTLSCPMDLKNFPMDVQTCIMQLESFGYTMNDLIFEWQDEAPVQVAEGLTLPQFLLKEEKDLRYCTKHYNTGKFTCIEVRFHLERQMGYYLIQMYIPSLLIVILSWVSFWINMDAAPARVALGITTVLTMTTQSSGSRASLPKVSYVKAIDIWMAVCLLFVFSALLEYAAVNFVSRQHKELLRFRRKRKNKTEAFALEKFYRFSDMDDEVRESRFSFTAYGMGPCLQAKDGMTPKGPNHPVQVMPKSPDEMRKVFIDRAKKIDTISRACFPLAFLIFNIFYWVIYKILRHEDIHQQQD
# Experimental: I/Io is calculated as the ratio of the current measured in the presence (I) and absence (Io) of compound 1 or THC at the indicated concentrations. Error bars designate the standard error of the mean (n≥4).
# FIGS. 2A and 2B are bar graphs showing the effect of compound 1 on modulation of human glycine receptor subtypes (α1GlyR, α3GlyR, α1βGlyR, and α3βGlyR) expressed in Xenopus laevis oocytes activated by 2% (FIG. 2A) and 20% (FIG. 2B) maximal effective concentration of glycine. I/Io was calculated as the ratio of the current measured in the presence (I) and absence (Io) of 10 μM compound 1. Error bars designate the standard error of the mean (n≥4).
# The compounds disclosed in Table 1 were assessed for in vitro modulation of human GlyRs. […] The assessed compounds were compounds 1 (3A), 2 (3B), 3 (3C), 4 (3D), 5 (3E), 6 (3F), 7 (3G), and 8 (3H). I/Io was calculated as the ratio of the current measured in the presence (I) and absence (Io) of 10 μM of the indicated compound. […]
# MJPY1 potentiates α3GlyR through binding to the THC-binding site near S296 in the transmembrane domain (TMD). […] Data were recorded at EC2 agonist for the indicated channels and are reported as the ratio of currents in the presence (I) and absence (Io) of 10 μM compound 1 (MJPY1). […]
# NOR = NOR (Homo sapiens, UniProt P41146); test: Radioligand binding assay, off-target profiling; details: 10 M MJPY1, mean, n = 4
# C57Bl/6J mice = test: Hargreaves test in C57Bl/6J mice; type: in vivo
# Experimental: In vivo mouse behavior tests validated the analgesic action of the representative compounds in response to inflammation. Responses of C57Bl/6J mice to the Hargreaves test (Pain, 32:77-88, 1988) were assessed pre- and post-application of compound 1 alone (white circles, application time=0 hours). […] Error bars designate the standard error of the mean (n≥4).
# Chain of NOR (P41146 whole entry): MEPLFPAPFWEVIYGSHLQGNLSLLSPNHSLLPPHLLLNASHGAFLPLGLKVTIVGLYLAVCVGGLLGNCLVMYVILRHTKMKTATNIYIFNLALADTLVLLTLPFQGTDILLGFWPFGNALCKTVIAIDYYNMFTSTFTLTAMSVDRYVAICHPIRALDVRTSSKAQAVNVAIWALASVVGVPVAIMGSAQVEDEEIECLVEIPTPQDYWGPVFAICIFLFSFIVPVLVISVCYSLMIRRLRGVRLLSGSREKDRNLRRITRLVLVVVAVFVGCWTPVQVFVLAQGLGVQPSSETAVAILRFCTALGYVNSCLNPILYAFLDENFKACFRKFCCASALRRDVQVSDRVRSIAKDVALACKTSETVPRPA
smiles,measurement,setting,value
"NC(=O)c1cccc(CNC(=O)c2ccc3c4c(cccc24)CC3)c1 [compound 1, N-[(3-carbamoylphenyl)-methyl]-1,2-dihydroacenaphthylene-5-carboxamide]","tolerance (time to paw withdrawal, first vs second dosing)","CD1 mice; 0.05 mg/kg, CD1 mice, CFA, repeated dose 1.5 or 24 hours after first dose wore off",No tolerance
same,tolerance after repeated dosing (PWL),"CD1 mice; 0.1 mg/kg i.p. once a day for 5 days, CFA on day 4",negligible tolerance
same,response time for paw withdrawal compared to vehicle,"CD1 mice; 0.1 mg/kg, CD1 mice, CFA-induced hyperalgesic conditions",increase in the response time
same,"EC50 for inflammatory pain (% MPE dose response, Hill fit)","CD1 mice; CFA-inflamed left hind paw, 1.5 and 2 hr after intraperitoneal injection (both time points), CD1 mice",~0.030 mg/kg and ~0.03 mg/kg
same,potentiation of α3GlyR (I/Io),"human α3GlyR; EC2 agonist, 10 μM compound",potentiates
same,modulation of human GlyRs (I/Io),"human α3GlyR; Xenopus laevis oocytes, 2% maximal effective concentration of glycine",modulated
same,% Inhibition NOR,NOR,−16.8%
same,response time for paw withdrawal,C57Bl/6J mice; maximum CFA-induced hyperalgesic conditions (24 hours post CFA),increase in response time
same,response time for paw withdrawal,C57Bl/6J mice; normal nociceptive conditions,no significant effect

# From US12194033B2, “Glycine receptor modulators and methods of use” (University of Pittsburgh—Of the Commonwealth System of …, priority 2017, dated 2025)
